Counter-ions that a name gives are not always drawn. Like-named read-outs stand apart in the source and are kept apart here.
Key:
[1] = Average score of NAC and NAL depletion and prediction of skin allergenicity, fluorescence method; conditions: for Average score: test substance solution 1 mmol/L
Summary of the method: (§1)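 Score is the mean of NAC and NAL depletion percentages, rounded at the second decimal place. Test substances classed as allergenic (S) or non-allergenic (NS) from depletion of NAC, NAL, or their average score.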

[2] = NAL depletion percent, HPLC-UV detection (281 nm); conditions: Reference (UV method)
Summary of the method: (§2)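 NAL (5 μmol/L, pH 10.2 phosphate buffer) reacted with test substance (1 mmol/L stock in water, acetonitrile, acetone or 5% DMSO/acetonitrile) for 24 h at 25 °C in the dark; stopped with TFA to 0.5%. Unreacted NAL quantified by HPLC (UV or fluorescence), n=3; depletion % relative to substance-free blank.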

[3] = Average score of NAC and NAL depletion and prediction of skin allergenicity, UV method; conditions: for Average score: test substance solution 1 mmol/L
Summary of the method: as §1

[4] = cited from earlier work
[5] = NAL depletion percent, HPLC-fluorescence detection
Summary of the method: as §2

[6] = NAC depletion percent, HPLC-fluorescence detection
Summary of the method: (§3)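 NAC at 5 μmol/L in pH 8.0 phosphate buffer reacted with test substance (1 mmol/L stock in water, acetonitrile, acetone or 5% DMSO/acetonitrile) 24 h at 25 °C in the dark, n=3. Stopped with TFA (0.5% final); unreacted NAC quantified by HPLC, depletion percent calculated against blank without test substance.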

[7] = NAC depletion percent, HPLC-UV detection (281 nm); conditions: Reference (UV method)
Summary of the method: as §3

[8] = single substance, fluorescence method, criterion average score […]
[9] = single substance, fluorescence method
[10] = single substance, test substance solution 1 mmol/L
[11] = single substance, Reference (UV method), criterion average score […]
[12] = single substance, Reference (UV method)
[13] = known values, LLNA-test-based classification, − for non-allergenic substances
[14] = single substance, test substance solution 1 mmol/L, fluorescence method
[15] = Fluorescence method, non-allergenic substance

Row | Compound | Prediction result [1, 8] | Average score [1, 9] [%] | NAL depletion (%) [2, 10] [%] | Prediction result [3, 11] | Average score [3, 12] [%] | EC3 (%) [4, 13] [%] | NAL depletion (%) [5, 14] [%] | NAC depletion (%) [6, 14] [%] | NAC depletion (%) [7, 10] [%] | Prediction result ([1]; Fluorescence method, skin allergenicity prediction) | NAL depletion (%) ([2]; non-allergenic substance) | Prediction result ([3]; Reference (UV method), skin allergenicity prediction) | NAL depletion (%) [5, 15] [%] | NAC depletion (%) [6, 15] [%] | NAC depletion (%) ([7]; non-allergenic substance) | Prediction result [1] | Prediction result [3] | EC3 (%) ([4]; in vivo)
1 | Vinylpyridine | S (S represents as being an allergenic substance) | 11.7 | 7.7 | S (S represents as being an allergenic substance) | 12.9 | 1.6 | 3.6 | 19.8 | 18.1 |  |  |  |  |  |  |  |  | 
2 | CCCCCCCCCCCCCCCC(=O)Cl [Palmitoyl chloride] | S (S represents as being an allergenic substance) | 54.9 | 95.9 | S (S represents as being an allergenic substance) | 50.8 | 8.8 | 98.3 | 11.5 | 5.8 |  |  |  |  |  |  |  |  | 
3 | c1ccc(COOCc2ccccc2)cc1 [Benzyl peroxide] | S (S represents as being an allergenic substance) | 81.9 | 50.6 | S (S represents as being an allergenic substance) | 75.3 | 0.004 | 63.7 | 100.0 | 100.0 |  |  |  |  |  |  |  |  | 
4 | CCOC(=O)/C=C\C(=O)OCC [Diethyl maleate] | S (S represents as being an allergenic substance) | 18.0 | 7.7 | S (S represents as being an allergenic substance) | 19.8 | 5.8 | 4.7 | 31.2 | 31.8 |  |  |  |  |  |  |  |  | 
5 | CCC=CC=CC=O [2,4-Heptadienal] | S (S represents as being an allergenic substance) | 29.0 | 50.1 | S (S represents as being an allergenic substance) | 42.9 | 4 | 11.8 | 46.2 | 35.8 |  |  |  |  |  |  |  |  | 
6 | CC(C=O)Cc1ccc(C(C)C)cc1 (centres unmarked) [Cyclamen aldehyde] | S (S represents as being an allergenic substance) | 6.1 | 1.7 | NS (NS represents as being a non-allergenic substance) | 2.4 | 22 | 0.0 | 12.2 | 3.1 |  |  |  |  |  |  |  |  | 
7 | CC(=O)C=Cc1ccccc1 [Benzylideneacetone] | S (S represents as being an allergenic substance) | 38.6 | 7.2 | S (S represents as being an allergenic substance) | 26.1 | 3.7 | 10.0 | 67.3 | 44.9 |  |  |  |  |  |  |  |  | 
8 | CCCCCCCCC(=O)O [Nonanoic acid] |  |  |  |  |  | 21 |  |  |  | NS (NS represents as being a non-allergenic substance) | 1.3 | NS (NS represents as being a non-allergenic substance) | 0.0 | 0.0 | 0.0 |  |  | 
9 | Clc1ccccc1 [Chlorobenzene] |  |  |  |  |  |  |  |  |  |  | 0.7 |  | 0.1 | 1.3 | 0.0 | NS (key: S represents as being an allergenic substance; NS represents as being a non-allergenic substance) | NS (key: S represents as being an allergenic substance; NS represents as being a non-allergenic substance) | −
10 | C=C(C)C1CC=C(C=O)CC1 (centres unmarked) [Perillaldehyde] | S (S represents as being an allergenic substance) | 24.7 | 18.5 | S (S represents as being an allergenic substance) | 23.8 | 8.1 | 7.1 | 42.4 | 29.1 |  |  |  |  |  |  |  |  | 
11 | ClC(Cl)c1ccccc1 [Benzylidene dichloride] |  |  |  |  |  |  |  |  |  |  | −0.3 |  | 1.4 | 2.1 | 0.9 | NS (key: S represents as being an allergenic substance; NS represents as being a non-allergenic substance) | NS (key: S represents as being an allergenic substance; NS represents as being a non-allergenic substance) | −
12 | NC1=CC(=Nc2ccc(N)cc2)C(N)=CC1=Nc1ccc(N)cc1 [Bandrowski's base] | S (S represents as being an allergenic substance) | 50.8 | 5.7 | S (S represents as being an allergenic substance) | 52.9 | 0.008 | 1.7 | 100.0 | 100.0 |  |  |  |  |  |  |  |  | 
13 | CC(C=O)c1ccccc1 (centres unmarked) [2-Phenylpropionaldehyde] | S (S represents as being an allergenic substance) | 7.9 | 4.6 | S (S represents as being an allergenic substance) | 6.3 | 6.3 | 7.3 | 8.5 | 8.0 |  |  |  |  |  |  |  |  | 
14 | CCC(=O)C=Cc1ccc(OC)cc1 [1-(4-Methoxyphenyl)-1-penten-3-one] | NS (NS represents as being a non-allergenic substance) | 0.8 | 4.2 | NS (NS represents as being a non-allergenic substance) | 2.9 | 9.3 | 0.4 | 1.2 | 1.6 |  |  |  |  |  |  |  |  | 
15 | CCCCCCC(C=O)=Cc1ccccc1 [α-Hexylcinnamaldehyde] | NS (NS represents as being a non-allergenic substance) | 0.0 | 1.1 | NS (NS represents as being a non-allergenic substance) | 0.6 | 11 | 0.0 | 0.0 | 0.0 |  |  |  |  |  |  |  |  | 
16 | Kathon CG |  | 51.0 | −0.4 |  | 49.8 |  | 2.0 | 100.0 | 100.0 |  |  |  |  |  |  |  |  | 0.008%
17 | CCN(CCNS(C)(=O)=O)c1ccc(N)c(C)c1.CCN(CCNS(C)(=O)=O)c1ccc(N)c(C)c1.O=S(=O)(O)O.O=S(=O)(O)O.O=S(=O)(O)O [CD3] | S (S represents as being an allergenic substance) | 54.0 | 16.5 | S (S represents as being an allergenic substance) | 46.6 | 0.6 | 8.1 | 100.0 | 76.6 |  |  |  |  |  |  |  |  | 
18 | O=CCc1ccccc1 [Phenylacetaldehyde] | S (S represents as being an allergenic substance) | 52.9 | 98.3 | S (S represents as being an allergenic substance) | 60.3 | 3 | 96.2 | 9.5 | 22.4 |  |  |  |  |  |  |  |  | 
19 | O=c1c(O)c(O)c1=O [Squaric acid] |  | 0.5 | 0.5 |  | 0.6 |  | 0.1 | 1.0 | 0.8 |  |  |  |  |  |  |  |  | 4.3%
20 | Cn1sc(Cl)cc1=O [5-Chloro-methyl-4-isothiazolin-3-one] | S (S represents as being an allergenic substance) | 54.7 | 17.7 | S (S represents as being an allergenic substance) | 58.8 | 0.009 | 9.3 | 100.0 | 100.0 |  |  |  |  |  |  |  |  | 
21 | CCCCCCCCCCCCOC(=O)c1cc(O)c(O)c(O)c1 [Lauryl gallate] | S (S represents as being an allergenic substance) | 57.7 | 19.0 | S (S represents as being an allergenic substance) | 59.5 | 0.3 | 15.9 | 99.5 | 100.0 |  |  |  |  |  |  |  |  | 
